Source: PubChem BioAssay AID330 (DTP/NCI, 2004)
“And” between values parts separate entries of the source, which are not always exact repeats. Identical values can stand only once. Toxic doses and inconclusive results are not listed. How the source made its calls: active means survival T/C of 150% or more; inactive means T/C below 125% in these data. Peptide text beside a SMILES is read from it. * marks the point of attachment. Boc = CC(C)(C)OC(=O)*; NHNH2 = NN*

System: P388 leukemia ip, CD2F1 mice, survival T/C
Experiment: NCI In Vivo Anticancer Drug Screen. Data for tumor model P388 Leukemia (intraperitoneal) in CD2F1 (CDF1) mice
Details: endpoint: median survival time, higher = longer survival
Outline: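 Mice carrying the transplanted tumor received test compound or vehicle. Survival was recorded in each group, and the value is the treated-group measurement divided by that of the vehicle-treated control group.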

[1] = dose: 50.0 mg/kg/injection, schedule: Q01DX005 (ip), vehicle: Klucel (hydroxypropylcellulose) (HPC)
[2] = dose: 100.0 mg/kg/injection, schedule: Q01DX005 (ip), vehicle: Klucel (hydroxypropylcellulose) (HPC)
[3] = dose: 50.0 mg/kg/injection, schedule: Q01DX009 (ip), vehicle: Klucel (hydroxypropylcellulose) (HPC)
[4] = dose: 100.0 mg/kg/injection, schedule: Q01DX009 (ip), vehicle: Klucel (hydroxypropylcellulose) (HPC)
[5] = dose: 200.0 mg/kg/injection, schedule: Q01DX009 (ip), vehicle: Klucel (hydroxypropylcellulose) (HPC)
[6] = dose: 50.0 mg/kg/injection, schedule: Q01DX005 (ip), vehicle: saline with Tween-80
[7] = dose: 100.0 mg/kg/injection, schedule: Q01DX005 (ip), vehicle: saline with Tween-80
[8] = dose: 200.0 mg/kg/injection, schedule: Q01DX005 (ip), vehicle: saline with Tween-80
[9] = dose: 50.0 mg/kg/injection, schedule: Q01DX009 (ip), vehicle: saline
[10] = dose: 100.0 mg/kg/injection, schedule: Q01DX009 (ip), vehicle: saline
[11] = dose: 200.0 mg/kg/injection, schedule: Q01DX009 (ip), vehicle: saline
[12] = dose: 25.0 mg/kg/injection, schedule: Q01DX005 (ip), vehicle: Klucel (hydroxypropylcellulose) (HPC)
[13] = dose: 200.0 mg/kg/injection, schedule: Q01DX005 (ip), vehicle: Klucel (hydroxypropylcellulose) (HPC)
[14] = dose: 25.0 mg/kg/injection, schedule: Q01DX009 (ip), vehicle: saline with Tween-80
[15] = dose: 50.0 mg/kg/injection, schedule: Q01DX009 (ip), vehicle: saline with Tween-80

Measured: T/C

COc1ccc(-c2cnc(C(N)=O)c(=O)[nH]2)cc1
inactive: dose: 100.0 mg/kg/injection, schedule: Q04DX003 (ip), vehicle: saline with Tween-80 104 % of control | dose: 200.0 mg/kg/injection, schedule: Q04DX003 (ip), vehicle: saline with Tween-80 95 % of control | dose: 400.0 mg/kg/injection, schedule: Q04DX003 (ip), vehicle: saline with Tween-80 100 % of control

C[CH2][Ge]([Cl])([Cl])[CH2]C
inactive: [1] 91 % of control | [2] 87 % of control

O=C(O)c1ccc(NC(=O)C2C(=O)C(=O)N(c3ccc(C(=O)O)cc3)C2=O)cc1 (configuration not stated)
inactive: [3] 104 % of control | [4] 100 % of control | [5] 103 % of control

N#CC(C(=O)C(=O)Nc1cccc(Cl)c1)c1ccccc1 (configuration not stated)
inactive: [6] 109 % of control | [7] 104 % of control | [8] 99 % of control

BrCCC1CO1 (configuration not stated)
inactive: [9] 98 % of control | [10] 100 % of control | [11] 117 % of control

Cc1cc(Br)ccc1N=Cc1ccc(C=Nc2ccc(Br)cc2C)cc1
inactive: [9] 90 % of control | [10] 86 % of control | [11] 92 % of control

COC1(OC)/C(=C/Cl)CC2(C)C(=O)NC(=O)C21Cl (configuration not stated)
inactive: [12] 106 % of control | [1] 105 % of control | [2] 105 % of control | [13] 106 % of control

CC(C)(C)OC(=O)NC(Cc1ccccc1)C(=O)NC(CO)C(=O)NN (stereo not drawn) (Boc-Phe-Ser-NHNH2; configuration not given here)
inactive: [1] 97 % of control | [2] 95 % of control | [13] 105 % of control

ClC1CCCCC1C(C1CCCCC1)C1CCCCC1 (configuration not stated)
inactive: [6] 98 % of control | [7] 100 % of control

CC(=O)OCC1OC(OC(C)=O)C(NC(=O)CN(Cc2ccccc2)S(C)(=O)=O)C(OC(C)=O)C1OC(C)=O (configuration not stated)
inactive: dose: 12.5 mg/kg/injection, schedule: Q01DX009 (ip), vehicle: other 91 % of control | dose: 25.0 mg/kg/injection, schedule: Q01DX009 (ip), vehicle: other 99 % of control | dose: 50.0 mg/kg/injection, schedule: Q01DX009 (ip), vehicle: other 96 % of control | dose: 100.0 mg/kg/injection, schedule: Q01DX009 (ip), vehicle: other 93 % of control | dose: 200.0 mg/kg/injection, schedule: Q01DX009 (ip), vehicle: other 105 % of control

COc1ccccc1/C=C/C(=O)c1ccccc(=O)c1O
inactive: [12] 101 % of control | [1] 104 % of control | [2] 100 % of control | [13] 109 % of control

COC(=O)CCCCCCCCCCCCCCCCC(=O)O
inactive: [3] 99 % of control | [4] 94 % of control | [5] 93 % of control

CC1=CC2OC34COC3CC(OC(=O)C(F)(F)F)C4(C)C2(C)CC1 (configuration not stated)
inactive: dose: 24.0 mg/kg/injection, schedule: Q04DX003 (ip), vehicle: saline with Tween-80 120 % of control | dose: 37.5 mg/kg/injection, schedule: Q04DX003 (ip), vehicle: saline with Tween-80 113 % of control | dose: 55.0 mg/kg/injection, schedule: Q04DX003 (ip), vehicle: saline with Tween-80 112 % of control

Cc1ccc(C)c2c1C(=O)c1c(C)ccc(C)c1C2=O
inactive: dose: 1.5 mg/kg/injection, schedule: Q01DX005 (ip), vehicle: Klucel (hydroxypropylcellulose) (HPC) 99 % of control | dose: 3.0 mg/kg/injection, schedule: Q01DX005 (ip), vehicle: Klucel (hydroxypropylcellulose) (HPC) 94 % of control | dose: 6.0 mg/kg/injection, schedule: Q01DX005 (ip), vehicle: Klucel (hydroxypropylcellulose) (HPC) 89 % of control | [1] 90 % of control | [2] 87 % of control | [13] 86 % of control

C[Si](C)(C)CSCCO
inactive: [6] 106 % of control | [7] 104 % of control | [8] 100 % of control

O=C(O)C1CCC(CNCC2C(=O)OC3CCC4C(O)CC(O)C4CC32)CC1 (configuration not stated)
inactive: dose: 100.0 mg/kg/injection, schedule: Q04DX002 (ip), vehicle: saline 97 % of control | dose: 200.0 mg/kg/injection, schedule: Q04DX002 (ip), vehicle: saline 100 % of control | dose: 400.0 mg/kg/injection, schedule: Q04DX002 (ip), vehicle: saline 105 % of control

CC(=O)c1ccc(N=C(C#N)C2=C(O)c3ccccc3C2=O)cc1
inactive: dose: 60.0 mg/kg/injection, schedule: Q01DX005 (ip), vehicle: saline with Tween-80 115 % of control | dose: 120.0 mg/kg/injection, schedule: Q01DX005 (ip), vehicle: saline with Tween-80 120 % of control

COC(=O)OC(C#N)c1ccc([N+](=O)[O-])cc1 (configuration not stated)
inactive: dose: 12.5 mg/kg/injection, schedule: Q01DX009 (ip), vehicle: saline 99 % of control and 88 % of control | dose: 25.0 mg/kg/injection, schedule: Q01DX009 (ip), vehicle: saline 93 % of control and 97 % of control | [9] 90 % of control and 97 % of control | dose: 50.0 mg/kg/injection, schedule: Q01DX009 (ip), vehicle: suspension in saline 97 % of control

Cc1ccc(NC(=O)C#N)cc1
inactive: dose: 15.0 mg/kg/injection, schedule: Q01DX005 (ip), vehicle: saline with Tween-80 107 % of control | dose: 30.0 mg/kg/injection, schedule: Q01DX005 (ip), vehicle: saline with Tween-80 96 % of control

CCOC(=O)/C(=C(/C)N=Cc1ccccc1[N+](=O)[O-])C(NN=O)c1ccccc1[N+](=O)[O-] (configuration not stated)
inactive: [12] 97 % of control | [1] 93 % of control | [2] 88 % of control and 90 % of control

Cc1nnc(NC(=O)CCl)s1
inactive: [14] 95 % of control | [15] 100 % of control | dose: 100.0 mg/kg/injection, schedule: Q01DX009 (ip), vehicle: saline with Tween-80 104 % of control

C[CH2][Pb]([Br])([CH2]C)[CH2]C
inactive: dose: 3.12 mg/kg/injection, schedule: Q01DX009 (ip), vehicle: saline with Tween-80 105 % of control and 97 % of control | dose: 6.25 mg/kg/injection, schedule: Q01DX009 (ip), vehicle: saline with Tween-80 103 % of control and 107 % of control | dose: 12.5 mg/kg/injection, schedule: Q01DX009 (ip), vehicle: saline with Tween-80 113 % of control and 114 % of control | [14] 106 % of control | [15] 107 % of control
